In patent US8541449B2, “Substituted isoquinolines and isoquinolinones as Rho kinase inhibitors” (Sanofi, priority 2008, dated 2013):

Tests used:
[1] = system: Protein Kinase G; conditions: Rho kinase versus Protein Kinase G; cited from earlier work
[2] = molecular target: T1, human recombinant ROCK II (Homo sapiens, UniProt O75116); assay: Determination of Rho kinase inhibition (Caliper peptide phosphorylation assay); format: biochemical; conditions: 60 min at 32° C., negative decadal logarithm of the IC50
T1 construct: N-terminal His6-tagged recombinant human ROCK-II residues 11-552; His6 (N); purchased Millipore GmbH, Schwalbach, Germany
Summary of the method: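 His6-tagged human ROCK II (residues 11-552) phosphorylated a fluorescein-labelled peptide for 60 min at 32° C in Tris-HCl pH 7.4 with MgCl2, DTT and BSA, using 3 μM peptide and 120 μM ATP as diluted stocks. EDTA-stopped; phosphopeptide separated and detected by Caliper mobility shift; IC50 determined.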

[3] = molecular target: T2, recombinant human PKA (Homo sapiens, UniProt P17612); assay: Determination of Protein Kinase A inhibition (Caliper peptide phosphorylation assay); format: biochemical; conditions: recombinant human PKA versus ROCK II
T2 construct: Active recombinant human PKA (residues 1-351, N-terminal His-tag); His-tag (N); purchased Invitrogen, Karlsruhe, Germany
Summary of the method: (§1)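 Full-length His-tagged PKG1-beta (150 ng/ml working) or His-tagged PKA residues 1-351 (30 ng/ml working) was mixed with compound in pH 7.4 Tris/MgCl2/DTT buffer. Fluorescein-peptide substrate and ATP (3 μM and 120 μM working) were then added for 60 min at 32 °C before an EDTA stop. Phosphopeptide was separated electrophoretically on a Caliper instrument to derive IC50.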

[4] = molecular target: T3, recombinant human PKG1-beta (Homo sapiens, UniProt Q13976); assay: Determination of Protein Kinase G inhibition (Caliper peptide phosphorylation assay); format: biochemical; conditions: recombinant human PKG1-beta versus ROCK II
T3 construct: Active recombinant human PKG1-beta (full-length, with N-terminal His-tag); His-tag (N); purchased Millipore GmbH, Schwalbach, Germany
T3 sequence (Q13976 1-686 isoform Q13976-2): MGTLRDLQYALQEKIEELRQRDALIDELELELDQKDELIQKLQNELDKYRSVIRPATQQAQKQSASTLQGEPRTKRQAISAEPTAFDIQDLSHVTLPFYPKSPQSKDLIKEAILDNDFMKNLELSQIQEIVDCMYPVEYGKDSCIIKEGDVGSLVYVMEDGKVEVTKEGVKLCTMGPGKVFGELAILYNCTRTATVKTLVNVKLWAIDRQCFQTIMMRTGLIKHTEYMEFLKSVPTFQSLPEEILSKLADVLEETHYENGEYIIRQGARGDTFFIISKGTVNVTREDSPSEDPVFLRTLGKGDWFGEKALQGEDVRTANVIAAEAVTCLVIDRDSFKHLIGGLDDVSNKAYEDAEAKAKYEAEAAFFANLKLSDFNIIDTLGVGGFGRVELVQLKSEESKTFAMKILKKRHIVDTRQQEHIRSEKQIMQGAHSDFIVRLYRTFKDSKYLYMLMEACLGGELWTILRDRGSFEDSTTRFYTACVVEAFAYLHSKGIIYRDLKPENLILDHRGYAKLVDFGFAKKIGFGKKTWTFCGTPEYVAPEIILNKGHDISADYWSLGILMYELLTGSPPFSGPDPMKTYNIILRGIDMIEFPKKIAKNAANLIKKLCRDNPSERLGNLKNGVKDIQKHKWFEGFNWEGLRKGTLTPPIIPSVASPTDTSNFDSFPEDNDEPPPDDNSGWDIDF
Summary of the method: as §1

T1 sequence (O75116 11-552): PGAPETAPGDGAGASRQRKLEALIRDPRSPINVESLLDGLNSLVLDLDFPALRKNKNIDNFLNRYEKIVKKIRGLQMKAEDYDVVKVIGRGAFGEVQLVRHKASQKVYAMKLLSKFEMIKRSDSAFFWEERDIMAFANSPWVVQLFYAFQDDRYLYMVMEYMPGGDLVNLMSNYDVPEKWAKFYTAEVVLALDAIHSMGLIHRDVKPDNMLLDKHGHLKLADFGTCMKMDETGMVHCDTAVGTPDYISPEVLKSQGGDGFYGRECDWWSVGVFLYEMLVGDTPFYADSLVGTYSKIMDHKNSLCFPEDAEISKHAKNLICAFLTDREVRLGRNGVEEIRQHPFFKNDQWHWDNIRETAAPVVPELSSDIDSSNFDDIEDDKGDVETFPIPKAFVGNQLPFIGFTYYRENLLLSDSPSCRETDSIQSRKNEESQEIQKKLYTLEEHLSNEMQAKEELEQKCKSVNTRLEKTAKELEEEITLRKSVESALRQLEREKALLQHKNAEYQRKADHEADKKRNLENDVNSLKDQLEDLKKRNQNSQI

Row | Compound | selectivity against Protein Kinase G [1] [fold] | pIC50 [2] | Selectivity against PKA [3] | Selectivity against PKG [4] | IC50 [2] [nM]
1 | C[C@@H](N)[C@H]1CC[C@H](C(=O)Nc2ccncc2)CC1 [Example Y-27632] | 20 | – | – | – | –
2 | CC(N)C[C@]1(c2ccc(F)cc2)CC[C@H](Oc2cc3cc[nH]c(=O)c3cc2Cl)CC1 (stereo partly drawn) [Example 109, cis-6-[4-(2-Amino-propyl)-4-(4-fluoro-phenyl)-cyclohexyloxy]-7-chloro-2H-isoquinolin-1-one] | – | ++++++ (7.0≦pIC50<8.0) | >300 | >100 | –
3 | CCC(N)[C@]1(c2cccc(C(F)(F)F)c2)CC[C@H](Oc2cc3cc[nH]c(=O)c3cc2C)CC1 (stereo partly drawn) [Example 86, cis-6-[4-(1-Amino-propyl)-4-(3-trifluoromethyl-phenyl)-cyclohexyloxy]-7-methyl-2H-iso quinolin-1-one] | – | +++++ (6.0≦pIC50<7.0) | >10 | >10 | –
4 | NC(c1ccc(F)cc1)C1CCC(Oc2cc3cc[nH]c(=O)c3cc2Cl)CC1 (single isomer, unassigned) [Example 37, 6-{4-[Amino-(4-fluoro-phenyl)-methyl]-cyclohexyloxy}-7-chloro-2H-isoquinolin-1-one] | – | – | >1000 | >300 | ≤ 10
5 | CCC(N)(CC)C1CCC(Oc2cc3cc[nH]c(=O)c3cc2Cl)CC1 (single isomer, unassigned) [Example 122, 6-{-4-[1-Amino-1-ethyl-propyl]-cyclohexyloxy}-7-chloro-2H-isoquinolin-1-one] | – | – | >300 | >10 | 10 to 100
6 | CCC(N)[C@]1(c2cccc(OC(F)(F)F)c2)CC[C@H](Oc2cc3cc[nH]c(=O)c3cc2Cl)CC1 (stereo partly drawn) [Example 84, cis-6-[4-(1-Amino-propyl)-4-(3-trifluoromethoxy-phenyl)-cyclohexyloxy]-7-chloro-2H-iso quinolin-1-one] | – | +++++ (6.0≦pIC50<7.0) | >100 | >10 | –
7 | CCC(N)[C@]1(c2ccccc2)CC[C@H](Oc2c(F)cc3c(=O)[nH]ccc3c2C)CC1 (stereo partly drawn) [Example 88, cis-6-[4-(1-Amino-propyl)-4-phenyl-cyclohexyloxy]-7-fluoro-5-methyl-2H-isoquinolin-1-one] | – | +++++ (6.0≦pIC50<7.0) | >10 | >10 | –
8 | CCCC(N)[C@]1(c2ccc(F)cc2)CC[C@H](Oc2cc3cc[nH]c(=O)c3cc2Cl)CC1 (stereo partly drawn) [Example 5, cis-6-[4-(1-Amino-butyl)-4-(4-fluoro-phenyl)-cyclo-hexyloxy]-7-chloro-2H-isoquinolin-1-one] | – | +++++++ (8.0≦pIC50) | >1000 | >300 | –
